According to ChEMBL document CHEMBL1131207, “Discovery and evaluation of a series of 3-acylindole imidazopyridine platelet-activating factor antagonists” (J Med Chem, 1998):

Columns and labels:
[1] = target: Platelet-activating factor receptor (Rattus norvegicus) (UniProt P46002); assay: Ability to block the effect of exogenously administered PAF upon intravenous administration in PAF-induced rat skin permeability assay; format: functional, organism-based
[2] = target: Platelet-activating factor receptor (Rattus norvegicus) (UniProt P46002); assay: Tested in vivo for to block the effect of exogenously administered PAF upon oral administration in PAF-induced rat skin permeability assay; format: functional, organism-based

Sequence of Platelet-activating factor receptor (Rattus norvegicus) (P46002 whole entry): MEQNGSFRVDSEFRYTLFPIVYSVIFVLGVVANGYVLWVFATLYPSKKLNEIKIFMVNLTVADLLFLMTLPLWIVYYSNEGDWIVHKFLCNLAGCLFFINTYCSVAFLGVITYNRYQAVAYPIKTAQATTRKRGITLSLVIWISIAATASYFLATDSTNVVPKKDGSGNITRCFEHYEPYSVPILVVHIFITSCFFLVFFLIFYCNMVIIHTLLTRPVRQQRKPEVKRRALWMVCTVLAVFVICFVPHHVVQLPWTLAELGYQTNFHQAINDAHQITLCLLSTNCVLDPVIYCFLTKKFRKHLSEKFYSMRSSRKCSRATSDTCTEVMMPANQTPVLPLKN

SMILES	ED50 [1] [mg/kg]	ED50 [2] [mg/kg]
COC(=O)c1ccc(C(=O)OC)c2c(C(=O)c3ccc(Cn4c(C)nc5cnccc54)cc3)c[nH]c12	0.035	0.71
C#Cc1cccc2c1c(C(O)c1ccc(Cn3c(C)nc4cnccc43)c(F)c1)cn2C(=O)N(C)C (stereo not given)	0.007	–
Cc1nc2cnccc2n1Cc1ccc(C(=O)c2cn(C(=O)N(C)C)c3cccc(OC(=O)N(C)C)c23)cc1F	0.005	2.7
Cc1nc2cnccc2n1Cc1ccc(S(=O)(=O)c2cn(C(=O)N(C)C)c3ccccc23)cc1	> 1	–
COC(=O)c1cccc2c1c(C(=O)c1ccc(Cn3c(C)nc4ccncc43)cc1)cn2C(=O)N(C)C	0.24	–
Cc1nc2cnccc2n1Cc1ccc(C(=O)c2cn(C(=O)N(C)C)c3ccc(-c4ccc(F)cc4)cc23)cc1	> 1	–
Cc1nc2cnccc2n1Cc1ccc(C(=O)c2cn(C(=O)N(C)C)c3cccc(F)c23)cc1	0.18	–
Cc1nc2cnccc2n1CCN1CCN(C(=O)c2cn(C(=O)N(C)C)c3cc(-c4ccc(F)cc4)ccc23)CC1	> 1	–
Cc1cccc2c1c(C(=O)c1ccc(Cn3c(C)nc4cnccc43)cc1)cn2C(=O)N(C)C	0.004	0.2
Cc1nc2cnccc2n1Cc1ccc(C(=O)c2c[nH]c3cc(-c4ccc(F)cc4)ccc23)cc1	1.3	–
COC(=O)c1cccc2c1c(C(=O)c1ccc(Cn3c(C)nc4cnccc43)c(F)c1)cn2C(=O)N(C)C	0.006	0.36
Cc1nc2cnccc2n1Cc1ccc(C(=O)c2c[nH]c3c(-c4ccc(F)cc4)cccc23)cc1	> 1	–
C#Cc1cccc2c1c(C(=O)c1ccc(Cn3c(C)nc4c[n+]([O-])ccc43)c(F)c1)cn2C(=O)N(C)C	> 0.5	–
Cc1nc2cnccc2n1Cc1ccc(C(=O)c2cn(C(=O)N(C)C)c3cccc(Cl)c23)cc1	0.008	0.12
CCOCCn1cc(C(=O)CN2CCC(n3c(C)nc4cnccc43)CC2)c2c(Cl)cccc21	0.068	–
Cc1nc2cnccc2n1Cc1ccc(C(=O)c2cn(C(=O)N(C)C)c3cccc(C(=O)OC(C)C)c23)cc1	0.006	–
C#Cc1cccc2[nH]cc(C(=O)c3ccc(Cn4c(C)nc5cnccc54)c(F)c3)c12	0.018	–
COC(=O)c1cccc2c1c(C(=O)C1CCC(Cn3c(C)nc4cnccc43)CC1)cn2C(=O)N(C)C (stereo not given)	0.02	> 1
COC(=O)c1cccc2c1c(C(=O)CCCCn1c(C)nc3cnccc31)cn2C(=O)N(C)C	> 1	–
CCc1cccc2c1c(C(=O)c1ccc(Cn3c(C)nc4cnccc43)cc1)cn2C(=O)N(C)C	0.003	0.078
COC(=O)c1cccc2c1c(C(=O)Cc1ccc(-n3c(C)nc4cnccc43)cc1)cn2C(=O)N(C)C	0.005	0.17
C#Cc1cccc2c1c(C(=O)c1ccc(Cn3c(C)nc4cnccc43)cc1)cn2C(=O)N(C)C	0.003	0.14
COC(=O)c1cccc2c1c(C(=O)c1ccc(Cn3c(C)nc4cccnc43)cc1)cn2C(=O)N(C)C	1.2	–
COC(=O)c1cccc2c1c(C(=O)c1ccc(Cn3c(C)nc4cnccc43)s1)cn2C(=O)N(C)C	0.12	–
COC(=O)c1cccc2c1c(C(=O)CN1CCC(n3c(C)nc4cnccc43)CC1)cn2C(=O)N(C)C	0.006	> 1
Cc1nc2cnccc2n1CCCCCC(=O)c1cn(C(=O)N(C)C)c2cccc(-c3ccc(F)cc3)c12	0.005	> 1

SMILES	ED50 [1] [mg/kg]	ED50 [2] [mg/kg]
COC(=O)c1cccc2c1c(S(=O)(=O)c1ccc(Cn3c(C)nc4cnccc43)cc1)cn2C(=O)N(C)C	0.48	–
COC(=O)c1cccc2c1c(C(=O)c1ccc(Cn3c(C)nc4ccccc43)cc1)cn2C(=O)N(C)C	> 1	–
Cc1nc2cnccc2n1Cc1ccc(C(=O)c2cn(C(=O)N(C)C)c3cccc(OC(=O)N(C)C)c23)cc1	0.005	0.34
Cc1nc2cnccc2n1C1CCN(C(=O)c2cn(C(=O)N(C)C)c3cc(-c4ccc(F)cc4)ccc23)CC1	> 1	–
Cc1nc2cnccc2n1Cc1ccc(C(=O)c2cn(C(=O)N(C)C)c3cccc(-c4ccco4)c23)cc1	0.007	0.79
Cc1nc2cnccc2n1Cc1ccc(C(=O)c2cn(C(=O)N(C)C)c3ccccc23)cc1	0.18	–
COC(=O)c1cccc2c1c(C(=O)c1ccc(Cn3c(C)nc4ncccc43)cc1)cn2C(=O)N(C)C	0.026	–
Cc1nc2cnccc2n1Cc1ccc(C(=O)c2cn(C(=O)N(C)C)c3cccc(O)c23)cc1	> 1	–
COC(=O)c1cc(C#Cc2ccccc2)cc2c1c(C(=O)c1ccc(Cn3c(C)nc4cnccc43)cc1)cn2C(=O)N(C)C	0.004	0.6
COC(=O)c1cccc2c1c(C(=O)c1ccc(Cn3c(C)nc4cnccc43)cc1)cn2C(=O)N1CCCC1	0.005	1.2
COC(=O)c1cccc2c1c(C(=O)c1ccc(Cn3c(C)nc4cnccc43)cc1)cn2C(=O)N(C)C	–	0.22
Cc1nc2cnccc2n1Cc1ccc(C(=O)c2cn(C(=O)N(C)C)c3cccc(C(=O)N(C)C)c23)cc1	0.028	1.3
Cc1nc2ccncc2n1Cc1ccc(C(=O)c2cn(C(=O)N(C)C)c3cc(-c4ccc(F)cc4)ccc23)cc1	1.1	–
COC(=O)c1cccc2c1c(C(=O)c1ccc(Cn3c(C)nc4cnccc43)cc1)cn2S(=O)(=O)C(C)C	0.12	–
COC(=O)c1[nH]c2cccc(OC)c2c1C(=O)c1ccc(Cn2c(C)nc3cnccc32)cc1	0.65	–
COC(=O)c1cccc2c1c(C(=O)c1ccc(Cn3c(C)nc4c[n+]([O-])ccc43)cc1)cn2C(=O)N(C)C	0.14	–
COC(=O)c1cccc2c1c(C(=O)c1ccc(Cn3c(C)nc4cnccc43)cc1)cn2C(C)C	0.1	–
COC(=O)c1cccc2c1c(C(=O)c1ccc(Cn3c(C)nc4cnccc43)cc1)cn2S(=O)(=O)N(C)C	0.074	–
COC(=O)c1cccc2c1c(C(=O)c1ccc(Cn3c(C)nc4c(C)nc(C)cc43)cc1)cn2C(=O)N(C)C	> 1	–
Cc1nc2cnccc2n1Cc1ccc(C(=O)c2cn(C(=O)N(C)C)c3cccc(Br)c23)cc1	0.007	0.13
COC(=O)c1cccc2c1c(C(=O)CCCCCCn1c(C)nc3cnccc31)cn2C(=O)N(C)C	> 1	–
Cc1nc2ncccc2n1Cc1ccc(C(=O)c2cn(C(=O)N(C)C)c3cccc(Cl)c23)cc1	0.34	–
Cc1nc2cnccc2n1Cc1ccc(C(=O)c2cn(C(=O)N(C)C)c3cccc(NC(=O)c4ccccc4)c23)cc1	0.11	–
Cc1cccc2c1c(C(=O)CN1CCC(n3c(C)nc4cnccc43)CC1)cn2C(=O)N(C)C	0.005	0.14
COC(=O)c1cccc2[nH]cc(C(=O)c3ccc(Cn4c(C)nc5cnccc54)cc3)c12	0.15	–
COC(=O)c1cccc2c1c(C(=O)c1ccc(Cn3c(C)nc4cnccc43)cc1)cn2CC(=O)N(C)C	0.012	2.4

SMILES	ED50 [1] [mg/kg]	ED50 [2] [mg/kg]
Cc1nc2cnccc2n1Cc1csc(C(=O)c2cn(C(=O)N(C)C)c3cc(-c4ccc(F)cc4)ccc23)n1	0.35	–
CNC(=O)n1cc(C(=O)c2ccc(Cn3c(C)nc4cnccc43)cc2)c2c(C(=O)OC)cccc21	0.007	–
CCOCCn1cc(C(=O)c2ccc(Cn3c(C)nc4cnccc43)cc2)c2c(C(=O)OC)cccc21	0.012	1.1
Cc1nc2cnccc2n1CC(=O)c1cn(C(=O)N(C)C)c2cc(-c3ccc(F)cc3)ccc12	> 1	–
COC(=O)c1cccc2c1c(C(=O)c1ccc(Cn3c(C)nc4c(O)nccc43)cc1)cn2C(=O)N(C)C	0.25	–
COC(=O)c1cc(-c2ccc(F)cc2)cc2c1c(C(=O)c1ccc(Cn3c(C)nc4cnccc43)cc1)cn2C(=O)N(C)C	0.002	0.64
COC(=O)c1cc(-c2cc3ccccc3o2)cc2c1c(C(=O)c1ccc(Cn3c(C)nc4cnccc43)cc1)cn2C(=O)N(C)C	0.011	–
COC(=O)c1cccc2c1c(C(=O)c1ccc(Cn3c(C)nc4cnccc43)cc1)cn2CC(=O)C(C)(C)C	0.036	–
C#Cc1cccc2c1c(C(=O)c1ccc(Cn3c(C)nc4cnccc43)c(F)c1)cn2C(=O)NC	0.006	–
CCOC(=O)c1cccc2c1c(C(=O)c1ccc(Cn3c(C)nc4cnccc43)cc1)cn2C(=O)N(C)C	0.006	> 1
Cc1nc2cnccc2n1Cc1ccc(C(=O)c2cn(C(=O)N(C)C)c3cccc(C#N)c23)cc1	0.23	–
Cc1nc2cnccc2n1Cc1ccc(C(=O)c2cn(C(=O)N(C)C)c3cccc(C(=O)O)c23)cc1	> 1	–
COC(=O)c1cccc2c1c(C(=O)c1ccc(Cn3c(C)nc4cnccc43)cc1)cn2C(N)=O	0.12	–
COc1cccc2c1c(C(=O)c1ccc(Cn3c(C)nc4cnccc43)cc1)cn2C(=O)N(C)C	0.007	0.22
Cc1ccc(C)c2c(C(=O)c3ccc(Cn4c(C)nc5cnccc54)cc3)c[nH]c12	0.054	–
Cc1nc2cnccc2n1Cc1ccc(C(=O)c2cn(C(=O)N(C)C)c3cccc(-c4ccc(F)cc4)c23)cc1	0.004	0.45
COC(=O)c1cccc2c1c(C(=O)CCCCCn1c(C)nc3cnccc31)cn2C(=O)N(C)C	0.013	1.1
COC(=O)c1cccc2c1c(C(=O)c1ccc(Cn3c(C)nc4ccccc43)cc1)cn2C(=O)N1CCCC1	1	–
Cc1[nH]c2ccccc2c1C(=O)c1ccc(Cn2c(C)nc3cnccc32)cc1	> 1	–
Cc1nc2cnccc2n1Cc1ccc(C(=O)c2c[nH]c3c(OCc4ccccc4)cccc23)cc1	0.24	–
Cc1nc2cnccc2n1Cc1ccc(C(=O)c2cn(C(=O)N(C)C)c3cccc(C(=O)OCc4ccccc4)c23)cc1	0.12	–
Cc1nc2cnccc2n1CC1CCN(C(=O)c2cn(C(=O)N(C)C)c3cc(-c4ccc(F)cc4)ccc23)CC1	0.022	2.2
Cc1nc2cnccc2n1CCCN(C)CC(=O)c1cn(C(=O)N(C)C)c2cc(-c3ccc(F)cc3)ccc12	> 1	–
COC(=O)c1cc(Br)cc2c1c(C(=O)c1ccc(Cn3c(C)nc4cnccc43)cc1)cn2C(=O)N(C)C	0.009	0.83
COC(=O)c1ccc2c(c1)c(C(=O)c1ccc(Cn3c(C)nc4cnccc43)cc1)cn2C(=O)N(C)C	> 1	–
Cc1nc2cnccc2n1CN1CCN(S(=O)(=O)c2cn(C(=O)N(C)C)c3cc(-c4ccc(F)cc4)ccc23)CC1	0.019	–
